Data published in ChEMBL document CHEMBL1629608, “Variations in amino acid composition of antisense peptide-phosphorodiamidate morpholino oligomer affect potency against Escherichia coli in vitro and in vivo” (Antimicrob Agents Chemother, 2009).
Converted amounts (≈) assume the structure as drawn.

Test system: Escherichia coli
Assay: Antibacterial activity against Escherichia coli K-12 W3110 by microdilution method
Format: functional
Details: K-12 substr. W3110

Question: `Cc1cn([C@H]2CN(P(=O)(OC[C@@H]3CN(P(=O)(OC[C@@H]4CN(P(=O)(OC[C@@H]5CN(P(=O)(OC[C@@H]6CN(P(=O)(OC[C@@H]7CN(P(=O)(OC[C@@H]8CN(P(=O)(OC[C@@H]9CN(P(=O)(OC[C@@H]%10CNC[C@H](n%11cnc%12c(=O)[nH]c(N)nc%12%11)O%10)N(C)C)C[C@H](n%10cc(C)c(=O)[nH]c%10=O)O9)N(C)C)C[C@H](n9cnc%10c(=O)[nH]c(N)nc%109)O8)N(C)C)C[C@H](n8cnc9c(N)ncnc98)O7)N(C)C)C[C@H](n7cc(C)c(=O)[nH]c7=O)O6)N(C)C)C[C@H](n6cnc7c(N)ncnc76)O5)N(C)C)C[C@H](n5cnc6c(=O)[nH]c(N)nc65)O4)N(C)C)C[C@H](n4ccc(N)nc4=O)O3)N(C)C)C[C@@H](COP(=O)(N(C)C)N3C[C@@H](COP(=O)(N(C)C)N4C[C@@H](COP(=O)(N(C)C)N5CCN(C(=O)CCNC(=O)CCCCCNC(=O)[C@H](CCCNC(=N)N)NC(=O)CCNC(=O)CCNC(=O)[C@H](CCCNC(=N)N)NC(=O)CCNC(=O)CCNC(=O)[C@H](CCCNC(=N)N)NC(=O)CCNC(=O)CCNC(=O)[C@@H](N)CCCNC(=N)N)CC5)O[C@@H](n5ccc(N)nc5=O)C4)O[C@@H](n4cc(C)c(=O)[nH]c4=O)C3)O2)c(=O)[nH]c1=O` (stereo partly drawn) was tested. Which MIC did it give?
Answer: > 80 µM

Question: Which MIC does the source give for `Cc1cn([C@H]2CN(P(=O)(OC[C@@H]3CN(P(=O)(OC[C@@H]4CN(P(=O)(OC[C@@H]5CN(P(=O)(OC[C@@H]6CN(P(=O)(OC[C@@H]7CN(P(=O)(OC[C@@H]8CN(P(=O)(OC[C@@H]9CN(P(=O)(OC[C@@H]%10CNC[C@H](n%11cnc%12c(=O)[nH]c(N)nc%12%11)O%10)N(C)C)C[C@H](n%10cc(C)c(=O)[nH]c%10=O)O9)N(C)C)C[C@H](n9cnc%10c(=O)[nH]c(N)nc%109)O8)N(C)C)C[C@H](n8cnc9c(N)ncnc98)O7)N(C)C)C[C@H](n7cc(C)c(=O)[nH]c7=O)O6)N(C)C)C[C@H](n6cnc7c(N)ncnc76)O5)N(C)C)C[C@H](n5cnc6c(=O)[nH]c(N)nc65)O4)N(C)C)C[C@H](n4ccc(N)nc4=O)O3)N(C)C)C[C@@H](COP(=O)(N(C)C)N3C[C@@H](COP(=O)(N(C)C)N4C[C@@H](COP(=O)(N(C)C)N5CCN(C(=O)CCNC(=O)CCCCCNC(=O)[C@H](Cc6ccccc6)NC(=O)[C@H](Cc6ccccc6)NC(=O)[C@H](CCCNC(=N)N)NC(=O)[C@H](Cc6ccccc6)NC(=O)[C@H](Cc6ccccc6)NC(=O)[C@@H](N)CCCNC(=N)N)CC5)O[C@@H](n5ccc(N)nc5=O)C4)O[C@@H](n4cc(C)c(=O)[nH]c4=O)C3)O2)c(=O)[nH]c1=O` (stereo partly drawn) here?
Answer: 20 µM (≈ 97.4 µg/mL)

Question: For `Cc1cn([C@H]2CN(P(=O)(OC[C@@H]3CN(P(=O)(OC[C@@H]4CN(P(=O)(OC[C@@H]5CN(P(=O)(OC[C@@H]6CN(P(=O)(OC[C@@H]7CN(P(=O)(OC[C@@H]8CN(P(=O)(OC[C@@H]9CN(P(=O)(OC[C@@H]%10CNC[C@H](n%11cnc%12c(=O)[nH]c(N)nc%12%11)O%10)N(C)C)C[C@H](n%10cc(C)c(=O)[nH]c%10=O)O9)N(C)C)C[C@H](n9cnc%10c(=O)[nH]c(N)nc%109)O8)N(C)C)C[C@H](n8cnc9c(N)ncnc98)O7)N(C)C)C[C@H](n7cc(C)c(=O)[nH]c7=O)O6)N(C)C)C[C@H](n6cnc7c(N)ncnc76)O5)N(C)C)C[C@H](n5cnc6c(=O)[nH]c(N)nc65)O4)N(C)C)C[C@H](n4ccc(N)nc4=O)O3)N(C)C)C[C@@H](COP(=O)(N(C)C)N3C[C@@H](COP(=O)(N(C)C)N4C[C@@H](COP(=O)(N(C)C)N5CCN(C(=O)CCNC(=O)CCCCCNC(=O)[C@H](CCCCN)NC(=O)CCCCCNC(=O)[C@H](CCCCN)NC(=O)CCCCCNC(=O)[C@H](CCCCN)NC(=O)CCCCCNC(=O)[C@H](CCCCN)NC(=O)CCCCCNC(=O)[C@H](CCCCN)NC(=O)CCCCCNC(=O)[C@@H](N)CCCCN)CC5)O[C@@H](n5ccc(N)nc5=O)C4)O[C@@H](n4cc(C)c(=O)[nH]c4=O)C3)O2)c(=O)[nH]c1=O` (stereo partly drawn), which MIC is on record?
Answer: > 80 µM
